Experimental data published in ChEMBL document CHEMBL1201862, “PubChem BioAssay data set” (2004).
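Compound exposure: 48 hours, 5 concentrations, 96-well plates. GI50 is the concentration that inhibits growth by half.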 Activity calls are given as the source filed them. No stated cut-off is given here; in the data, active = GI50 up to about 1.1 µM and inactive = higher.

Tests used:
Assay in all cases: NCI anticancer screen, dose series, 48 h
CAKI-1 = test system: CAKI-1
EKVX = test system: EKVX
T47D = test system: T47D
786-0 = test system: 786-0
RPMI-8226 = test system: RPMI-8226
NCI/ADR-RES = test system: NCI/ADR-RES
A498 = test system: A498
KM12 = test system: KM12
HT-29 = test system: HT-29
A549 = test system: A549
ACHN = test system: ACHN
Malme-3M = test system: Malme-3M
SNB-19 = test system: SNB-19
SK-MEL-5 = test system: SK-MEL-5
UACC-62 = test system: UACC-62
K562 = test system: K562
LOX IMVI = test system: LOX IMVI
MDA-MB-231 = test system: MDA-MB-231
SNB-75 = test system: SNB-75
HOP-92 = test system: HOP-92

| Compound | GI50 (CAKI-1) | GI50 (EKVX) | GI50 (T47D) | GI50 (786-0) | GI50 (RPMI-8226) | GI50 (NCI/ADR-RES) | GI50 (A498) | GI50 (KM12) | GI50 (HT-29) | GI50 (A549) | GI50 (ACHN) | GI50 (Malme-3M) | GI50 (SNB-19) | GI50 (SK-MEL-5) | GI50 (UACC-62) | GI50 (K562) | GI50 (LOX IMVI) | GI50 (MDA-MB-231) | GI50 (SNB-75) | GI50 (HOP-92) |
| --- | --- | --- | --- | --- | --- | --- | --- | --- | --- | --- | --- | --- | --- | --- | --- | --- | --- | --- | --- | --- |
| CCn1c(CCCc2nc3c(=O)n(C)c(=O)n(C)c3[nH]2)nc2c1c(=O)n(C)c(=O)n2C | > 100 µM (inactive) | 43 µM (inactive) | > 100 µM (inactive) | > 100 µM (inactive) | > 100 µM (inactive) | > 100 µM (inactive) | > 100 µM (inactive) | > 100 µM (inactive) | > 100 µM (inactive) | > 100 µM (inactive) | > 100 µM (inactive) | > 100 µM (inactive) | > 100 µM (inactive) | 14 µM (inactive) | > 100 µM (inactive) | 75.7 µM (inactive) | > 100 µM (inactive) | > 100 µM (inactive) | – | – |
| CC1(C)OC2[C@@H](CO[C@@]3([C@@H](O)CCO)OC(C)(C)O[C@@H]23)O1 (stereo partly drawn) | > 100 µM (inactive) | > 100 µM (inactive) | > 100 µM (inactive) | > 100 µM (inactive) | > 100 µM (inactive) | > 100 µM (inactive) | – | > 100 µM (inactive) | > 100 µM (inactive) | – | > 100 µM (inactive) | – | > 100 µM (inactive) | > 100 µM (inactive) | > 100 µM (inactive) | > 100 µM (inactive) | > 100 µM (inactive) | > 100 µM (inactive) | > 100 µM (inactive) | > 100 µM (inactive) |
| COC(=O)C1(Cc2ccccc2)Cc2ccccc2C1O (stereo not drawn) | > 100 µM (inactive) | 65 µM (inactive) | 43.3 µM (inactive) | > 100 µM (inactive) | > 100 µM (inactive) | > 100 µM (inactive) | > 100 µM (inactive) | > 100 µM (inactive) | > 100 µM (inactive) | 87.5 µM (inactive) | > 100 µM (inactive) | > 100 µM (inactive) | – | 37.3 µM (inactive) | > 100 µM (inactive) | > 100 µM (inactive) | > 100 µM (inactive) | > 100 µM (inactive) | 87.7 µM (inactive) | – |
| O=C(O)C1C2CCC(O2)C1C(=O)Nc1cccc2cccnc12 (stereo not drawn) | > 100 µM (inactive) | > 100 µM (inactive) | > 100 µM (inactive) | > 100 µM (inactive) | > 100 µM (inactive) | > 100 µM (inactive) | > 100 µM (inactive) | > 100 µM (inactive) | > 100 µM (inactive) | > 100 µM (inactive) | > 100 µM (inactive) | > 100 µM (inactive) | > 100 µM (inactive) | – | > 100 µM (inactive) | > 100 µM (inactive) | > 100 µM (inactive) | > 100 µM (inactive) | > 100 µM (inactive) | – |
| CC1=NN(c2cccc(Cl)c2)C2(SCC(=O)N2c2nc3ccccc3s2)/C1=C\c1ccc(N(C)C)cc1 (stereo not drawn) | 85.9 µM (inactive) | > 100 µM (inactive) | 34.8 µM (inactive) | 43.8 µM (inactive) | 44.2 µM (inactive) | > 100 µM (inactive) | 27.9 µM (inactive) | > 100 µM (inactive) | > 100 µM (inactive) | – | 26.1 µM (inactive) | – | – | 39.7 µM (inactive) | – | 43.8 µM (inactive) | > 100 µM (inactive) | 40.7 µM (inactive) | – | 23.7 µM (inactive) |
| O=C1CC(CC(=O)c2ccc(Br)cc2)C(O)=C1C(=O)c1ccc(Br)cc1 (stereo not drawn) | > 100 µM (inactive) | > 100 µM (inactive) | 71.6 µM (inactive) | > 100 µM (inactive) | > 100 µM (inactive) | > 100 µM (inactive) | 77.1 µM (inactive) | 11.5 µM (inactive) | 49.2 µM (inactive) | > 100 µM (inactive) | > 100 µM (inactive) | 69.7 µM (inactive) | 56.2 µM (inactive) | > 100 µM (inactive) | 42.6 µM (inactive) | 44.9 µM (inactive) | 79.1 µM (inactive) | 72.9 µM (inactive) | – | 30.1 µM (inactive) |
| COc1ccc(/N=N/C(=N/NC(=O)c2ccccc2)c2ccc(N(CCC#N)CCC#N)cc2C)cc1 | > 100 µM (inactive) | 97.9 µM (inactive) | 53.7 µM (inactive) | 47.5 µM (inactive) | > 100 µM (inactive) | > 100 µM (inactive) | 25.6 µM (inactive) | 11.6 µM (inactive) | 17.9 µM (inactive) | 38.2 µM (inactive) | 54.3 µM (inactive) | 48 µM (inactive) | 50.9 µM (inactive) | 18.2 µM (inactive) | 38.5 µM (inactive) | 19.5 µM (inactive) | – | 50.9 µM (inactive) | 43 µM (inactive) | – |
| O=C(OCCN=c1c2ccccc2ccc2ccccc12)c1ccc([N+](=O)[O-])cc1 | > 100 µM (inactive) | > 100 µM (inactive) | > 100 µM (inactive) | > 100 µM (inactive) | > 100 µM (inactive) | > 100 µM (inactive) | – | > 100 µM (inactive) | > 100 µM (inactive) | > 100 µM (inactive) | > 100 µM (inactive) | > 100 µM (inactive) | > 100 µM (inactive) | > 100 µM (inactive) | > 100 µM (inactive) | > 100 µM (inactive) | > 100 µM (inactive) | > 100 µM (inactive) | > 100 µM (inactive) | > 100 µM (inactive) |
| Cc1ccc2nc(N/N=C/c3sccc3C)cc(C)c2c1 | > 100 µM (inactive) | > 100 µM (inactive) | > 100 µM (inactive) | 29.2 µM (inactive) | – | > 100 µM (inactive) | > 100 µM (inactive) | > 100 µM (inactive) | 5.48 µM (inactive) | 83.9 µM (inactive) | > 100 µM (inactive) | – | 48.2 µM (inactive) | 28.8 µM (inactive) | > 100 µM (inactive) | > 100 µM (inactive) | > 100 µM (inactive) | 14.7 µM (inactive) | 38.7 µM (inactive) | 35 µM (inactive) |
| CC(C)(C)OC(=O)NNCC(O)COc1ccccc1 (stereo not drawn) | > 100 µM (inactive) | > 100 µM (inactive) | > 100 µM (inactive) | > 100 µM (inactive) | > 100 µM (inactive) | > 100 µM (inactive) | > 100 µM (inactive) | – | > 100 µM (inactive) | > 100 µM (inactive) | > 100 µM (inactive) | > 100 µM (inactive) | > 100 µM (inactive) | > 100 µM (inactive) | > 100 µM (inactive) | > 100 µM (inactive) | > 100 µM (inactive) | > 100 µM (inactive) | – | > 100 µM (inactive) |
| NNc1ncnc2cccc(Cl)c12 | > 100 µM (inactive) | 17.8 µM (inactive) | > 100 µM (inactive) | > 100 µM (inactive) | – | > 100 µM (inactive) | > 100 µM (inactive) | > 100 µM (inactive) | > 100 µM (inactive) | > 100 µM (inactive) | > 100 µM (inactive) | 2.02 µM (inactive) | > 100 µM (inactive) | > 100 µM (inactive) | > 100 µM (inactive) | > 100 µM (inactive) | – | > 100 µM (inactive) | > 100 µM (inactive) | – |
| O=C(Oc1cncc(Cl)c1)c1cc2ccccc2sc1=O | > 100 µM (inactive) | > 100 µM (inactive) | > 100 µM (inactive) | 63.5 µM (inactive) | 21.1 µM (inactive) | 78.3 µM (inactive) | – | 40.9 µM (inactive) | 86.1 µM (inactive) | > 100 µM (inactive) | 86.1 µM (inactive) | 34.2 µM (inactive) | 92.5 µM (inactive) | 31.7 µM (inactive) | 29 µM (inactive) | 31.7 µM (inactive) | 37.3 µM (inactive) | 61.5 µM (inactive) | 27.8 µM (inactive) | 71.4 µM (inactive) |
| CC(=O)OCC1OC(n2c(C)c(/N=N/c3ccc(C)cc3)c(C)c(C#N)c2=S)C(OC(C)=O)C(OC(C)=O)C1OC(C)=O (stereo not drawn) | > 100 µM (inactive) | – | > 100 µM (inactive) | 27.4 µM (inactive) | > 100 µM (inactive) | > 100 µM (inactive) | – | > 100 µM (inactive) | > 100 µM (inactive) | > 100 µM (inactive) | > 100 µM (inactive) | 79.3 µM (inactive) | > 100 µM (inactive) | 43.2 µM (inactive) | 50.2 µM (inactive) | > 100 µM (inactive) | > 100 µM (inactive) | 48.6 µM (inactive) | 60.4 µM (inactive) | 0.895 µM (active) |
| NS(=O)(=O)c1nnc(NSc2ccc([N+](=O)[O-])cc2)s1 | 92.3 µM (inactive) | > 100 µM (inactive) | > 100 µM (inactive) | > 100 µM (inactive) | 49.7 µM (inactive) | > 100 µM (inactive) | > 100 µM (inactive) | > 10 µM (inactive) | – | > 100 µM (inactive) | > 100 µM (inactive) | > 100 µM (inactive) | > 100 µM (inactive) | > 100 µM (inactive) | > 100 µM (inactive) | > 100 µM (inactive) | > 100 µM (inactive) | > 100 µM (inactive) | – | > 100 µM (inactive) |
| CC12CCC3[C@@H](CC3(C)C)C(O)(CCC1=O)C2 (stereo partly drawn) | > 100 µM (inactive) | > 100 µM (inactive) | > 100 µM (inactive) | > 100 µM (inactive) | > 100 µM (inactive) | > 100 µM (inactive) | – | > 100 µM (inactive) | > 100 µM (inactive) | > 100 µM (inactive) | > 100 µM (inactive) | > 100 µM (inactive) | – | > 100 µM (inactive) | > 100 µM (inactive) | > 100 µM (inactive) | > 100 µM (inactive) | > 100 µM (inactive) | > 100 µM (inactive) | > 100 µM (inactive) |
